Measurements as given in the supplement of paper PMC10307832.

What was measured:
Experiment in all cases: relative viability (nuclei count vs DMSO), 5 days (fraction); higher = more cells survive
Alisertib + Tozasertib = compound: COc1cc(Nc2ncc3c(n2)-c2ccc(Cl)cc2C(c2c(F)cccc2OC)=NC3)ccc1C(=O)O [Alisertib] + Cc1cc(Nc2cc(N3CCN(C)CC3)nc(Sc3ccc(NC(=O)C4CC4)cc3)n2)n[nH]1 [Tozasertib] (partner 0.1 µM)
In short: (§1)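 Lung cancer cell lines in 1536-well plates got either a single drug or a fixed anchor-drug dose together with five library-drug doses (not always all listed) in √10 steps, by pin tool, on the day after seeding. Nuclei were counted after 5 days, and relative viability is the treated-to-vehicle ratio of nuclei counts. Values are medians of duplicate plates.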

Alisertib + Foretinib = compound: COc1cc(Nc2ncc3c(n2)-c2ccc(Cl)cc2C(c2c(F)cccc2OC)=NC3)ccc1C(=O)O [Alisertib] + COc1cc2c(Oc3ccc(NC(=O)C4(C(=O)Nc5ccc(F)cc5)CC4)cc3F)ccnc2cc1OCCCN1CCOCC1 [Foretinib] (partner 0.25 µM)
In short: as §1

Alisertib + Luminespib = compound: COc1cc(Nc2ncc3c(n2)-c2ccc(Cl)cc2C(c2c(F)cccc2OC)=NC3)ccc1C(=O)O [Alisertib] + CCNC(=O)c1noc(-c2cc(C(C)C)c(O)cc2O)c1-c1ccc(CN2CCOCC2)cc1 [Luminespib] (partner 0.01 µM)
In short: as §1

Alisertib + AZD7762 = compound: COc1cc(Nc2ncc3c(n2)-c2ccc(Cl)cc2C(c2c(F)cccc2OC)=NC3)ccc1C(=O)O [Alisertib] + NC(=O)Nc1cc(-c2cccc(F)c2)sc1C(=O)N[C@H]1CCCNC1 [AZD7762] (partner 0.2 µM)
In short: as §1

Row | Cell Line | relative viability (Alisertib + Tozasertib; first compound 0.005 µM) | relative viability (Alisertib + Tozasertib; first compound 0.01581 µM) | relative viability (Alisertib + Tozasertib; first compound 0.05 µM) | relative viability (Alisertib + Tozasertib; first compound 0.1581 µM) | relative viability (Alisertib + Tozasertib; first compound 0.5 µM) | relative viability (Alisertib + Foretinib; first compound 0.005 µM) | relative viability (Alisertib + Foretinib; first compound 0.01581 µM) | relative viability (Alisertib + Foretinib; first compound 0.05 µM) | relative viability (Alisertib + Foretinib; first compound 0.1581 µM) | relative viability (Alisertib + Foretinib; first compound 0.5 µM) | relative viability (Alisertib + Luminespib; first compound 0.005 µM) | relative viability (Alisertib + Luminespib; first compound 0.01581 µM) | relative viability (Alisertib + Luminespib; first compound 0.05 µM) | relative viability (Alisertib + Luminespib; first compound 0.1581 µM) | relative viability (Alisertib + Luminespib; first compound 0.5 µM) | relative viability (Alisertib + AZD7762; first compound 0.005 µM) | relative viability (Alisertib + AZD7762; first compound 0.01581 µM) | relative viability (Alisertib + AZD7762; first compound 0.05 µM) | relative viability (Alisertib + AZD7762; first compound 0.1581 µM) | relative viability (Alisertib + AZD7762; first compound 0.5 µM)
1 | NCI-H2170 | 0.658 | 0.674 | 0.321 | 0.261 | 0.161 | 0.715 | 0.972 | 0.605 | 0.563 | 0.181 | 0.518 | 0.777 | 0.317 | 0.318 | 0.207 | 0.85 | 0.608 | 0.59 | 0.199 | 0.176
2 | NCI-H2342 | 0.623 | 0.424 | 0.335 | 0.377 | 0.351 | 1.04 | 1.09 | 0.652 | 0.464 | 0.363 | 0.646 | 0.662 | 0.555 | 0.447 | 0.368 | 0.565 | 0.43 | 0.347 | 0.352 | 0.414
3 | NCI-H2347 | 0.517 | 0.549 | 0.415 | 0.401 | 0.273 | 0.733 | 0.84 | 0.863 | 0.454 | 0.459 | 0.275 | 0.287 | 0.429 | 0.317 | 0.422 | 0.741 | 0.671 | 0.585 | 0.387 | 0.37
4 | NCI-H2405 | 0.772 | 0.618 | 0.308 | 0.293 | 0.258 | 1.02 | 0.992 | 0.838 | 0.371 | 0.286 | 0.735 | 0.619 | 0.745 | 0.356 | 0.285 | 0.589 | 0.684 | 0.66 | 0.24 | 0.251
5 | NCI-H3122 | 0.384 | 0.315 | 0.235 | 0.27 | 0.191 | 0.9 | 0.981 | 0.551 | 0.384 | 0.191 | 0.105 | 0.101 | 0.0716 | 0.0737 | 0.0805 | 0.973 | 0.78 | 0.776 | 0.259 | 0.203
6 | PC-3 [JPC-3] | 0.893 | 0.814 | 0.548 | 0.551 | 0.387 | 0.97 | 0.868 | 0.706 | 0.531 | 0.398 | 0.705 | 0.661 | 0.455 | 0.376 | 0.359 | 0.649 | 0.778 | 0.705 | 0.403 | 0.317
7 | PC-14 | 0.566 | 0.492 | 0.26 | 0.0568 | 0.06 | 0.849 | 0.77 | 0.837 | 0.473 | 0.135 | 0.177 | 0.141 | 0.146 | 0.134 | 0.151 | 0.226 | 0.38 | 0.272 | 0.0966 | 0.0539
8 | RERF-LC-KJ | 0.511 | 0.386 | 0.253 | 0.27 | 0.218 | 0.861 | 0.772 | 0.484 | 0.356 | 0.21 | 1.24 | 0.81 | 0.342 | 0.248 | 0.312 | 0.798 | 0.799 | 0.801 | 0.236 | 0.214
9 | SW 900 | 0.557 | 0.54 | 0.375 | 0.241 | 0.191 | 0.68 | 0.832 | 0.598 | 0.194 | 0.186 | 0.16 | 0.167 | 0.182 | 0.188 | 0.176 | 0.568 | 0.617 | 0.637 | 0.232 | 0.17
